Data from patent US12023330B2, “Use of manzamines as antiproliferative agent” (priority 2020, dated 2024).

Tests used:
Format in all cases: cell-based, human
[1] = tested on: p53, p21, cyclin D1, total Rb, phospho-Rb; assay: Protein expression analysis of cell cycle regulatory proteins; details: 2 and 4 μM, 48 h
Description: Molecular Targets of Manzamine A (1). HeLa, SiHa and CaSki cell lines represent the most common form of cervical cancer infected by the HPV type 16 (SiHa and CaSki) and 18 (HeLa). Cervical cancer is primarily aggravated by the sustained expression of HPV-derived E6 and E7 oncogenes utilizing distinct mechanisms that affect cell-cycle checkpoints. For instance, E6 promotes p53 degradation, while E7 is associated with phosphorylation of retinoblastoma (Rb) proteins. See (22) Huh, K.; Zhou, X.; Hayakawa, H.; Cho, J. Y.; Libermann, T. A.; Jin, J.; Harper, J. W.; Munger, K. J. Virol. 2007, 81, 9737-9747 and Talis, A. L.; Huibregtse, J. M.; Howley, P. M. J. Biol. Chem. 1998, 273, 6439-6445. Both p53 and Rb are tumor suppressor genes and play a critical role in maintaining cell cycle regulation. Additionally, interaction of cyclin D1 with Rb protein and their expression levels correlate positively in association with tumorigenesis. Therefore, we sought to examine the molecular targets of manzamine A leading to anti-cancer activity in cervical cancer. […] Following the overnight attachment of 1×10^6 cells/well, the cells were treated with manzamine A (1) at 2 and 4 μM concentrations and incubated for 48 h. Cell lysates were prepared for protein analysis. […] However, detailed mechanistic studies of manzamine A determining anti-cancer effect are required to further substantiate these observations.
Protein Expression Analysis. C33A, HeLa, SiHa and CaSki cells were seeded at a density of 1×10^6 cells/100 mm petri dish. The next day, the cells were treated with 2 μM or 4 μM concentrations of manzamine A (1) or with 10, 20, or 40 μM concentrations with apigenin (Sigma, MO) and incubated for 48 hours. At the given time-point, the cells were harvested by trypsinization, washed with PBS, and lysed using radioimmunoprecipitation assay (RIPA) buffer containing a cocktail of protease inhibitors (Sigma, MO) to extract protein. Following quantification by colorimetric assay (Bio-Rad), equal amount of protein was loaded on to SDS-polyacrylamide gel and transferred to polyvinylidene difluoride (PVDF) membrane, which was blocked in 5% non-fat dry milk in tris-buffered saline with tween-20 (TBST) and incubated with primary antibody against p53, p21, Cyclin D1, SIX1, GAPDH (Cell signaling) or CK2α (R&D Systems) at a 1:500 dilution. For total CK2a, Rb and pRb, the blocking and antibody dilutions were made in 3% bovine serum albumin (BSA). The membrane was washed with TBST and incubated with secondary IgG HRP conjugate at 1:2000 dilution. The specific band of the protein was visualized with chemiluminescence reagent exposed onto BioMax Film (Kodak) and ChemoDoc-it^2 imager (UVP).

C33A cells = assay: CellTiter-Glo cell viability assay
Description: (§1) Biological Effect of Marine Sponge Natural Product Manzamine A on Cervical Cancer Cell Growth. We determined the biological activity of manzamine A on cervical cancer cells C33A (HPV-negative), HeLa, SiHa, and CaSki (HPV16/18-positive) using a wide range of concentrations (0-40 μM) at different time points (24, 48 and 72 hours). The CellTiter-Glo cell viability assay determined the cell viability based on metabolically active cells producing ATP in the cell culture. […] Twenty thousand (2×10^4) cells were seeded in ninety-six well plates and treated with a wide range of 1 μM to 40 μM concentration of manzamine A for three time points (24, 48 and 72 h). The experiment was repeated at least three times in quadruplicates from different cell preparations with similar results. Percent viable cells were used to calculate IC50 values and are shown in the inset for all the cell lines at their respective time-points. The percent viability values represent standard error from the mean (mean±SE).
(§2) Cell Culture. Human cervical cancer cell lines C33A, HeLa, SiHa, and CaSki were purchased from the American Type Culture Collection (ATCC, Manassas, VA). Cells were grown in Dulbecco's Modified Eagle Medium (DMEM) medium supplemented with 10% fetal bovine serum, 2 mM L-glutamine, 100 U/ml of penicillin-streptomycin, and maintained at 37° C. with 5% CO2 in a humidified incubator.
(§3) Cell Viability Assay. Cell viability was measured by using Cell Titer-Glo Luminescent Cell Viability Assay Kit (Promega, Leiden, Netherlands) according to the manufacturer's instructions. Briefly, 2×10^4 cells were seeded in 96 well plates. Next day, cells were treated with different concentrations of MA (0-40 μM) for 24, 48 and 72 hours. Percent viability was calculated using the formula: percent (%) viability=100×(Treatment/Control). The IC50 value was calculated from the dose responsive sigmoid curve generated from % viability using GrpaphPad Prism 7 software.

HeLa cells = assay: CellTiter-Glo cell viability assay
Description: as §1, §2, §3

CaSki cells = assay: CellTiter-Glo cell viability assay
Description: as §1, §2, §3

[2] = tested on: cervical cancer cell lines; assay: Colony formation assay; details: 2 and 4 μM; one week
Description: To maintain the treatment uniformity across the cell lines, we selected optimal dose concentration of 1 to 4 μM, and treated C33A, HeLa, SiHa and CaSki cell lines.
Colony Formation Assay. Cancer cell lines were seeded at a density of 1×10^3 cells/ml in 6-well plates. Following overnight incubation, the cells were treated with manzamine A (1) (2 μM and 4 μM) and incubated in a tissue culture incubator at 37° C. with 5% CO2. After one week, the developed cell colonies were fixed with 4% paraformaldehyde, stained with 0.5% crystal violet, and were photographed.

Compound: O[C@]12C=C(c3nccc4c3[nH]c3ccccc34)[C@@H]3CCN(CCCC/C=C\CC1)C[C@@]31C[C@@H]3/C=C\CCCCN3[C@H]12 [manzamine A]
- p21 protein level ([1]; C33A): not-detectable
- p53 protein level ([1]; C33A): did not show any change
- p21 level ([1]; HeLa): remains unchanged
- p53 level ([1]; HeLa): marginal increase
- cyclin D1, total Rb, and phospho-Rb protein level ([1]; SiHa and CaSki): inhibition
- p53 and p21 protein level ([1]; SiHa and CaSki): increase
- IC50 (C33A cells; 48 hours): 2.1 µM
- IC50 (C33A cells; 72 hours): 1.6 µM
- IC50 (HeLa cells; 48 hours): 4 µM
- IC50 (HeLa cells; 72 hours): 5.3 µM
- IC50 (CaSki cells; 48 hours): 19.9 µM
- IC50 (CaSki cells; 72 hours): 9.4 µM
- colony formation (long-term cell growth) [2]: inhibited the cell growth
